# According to the METLIN SMRT retention time set (Domingo-Almenara et al. 2019):
# Experiment: gradient 5% acetonitrile 3 min, to 50% in 2 min, to 85% in 15 min, held 3 min, 100 µL/min
# Settings: column: Zorbax Extend-C18 2.1 x 50 mm; eluents: water / acetonitrile, 0.1% formic acid
# Summary of the method: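 The mobile phases were water and acetonitrile, each with 0.1% formic acid, pumped at 100 μL/min through a Zorbax Extend-C18 column (2.1 × 50 mm, 1.8 μm). Pure standards were injected as mixtures of ~100 molecules and detected by a quadrupole time-of-flight mass spectrometer in positive and negative ionization mode. Retention time came from computationally picked adduct peaks, each inspected by hand.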
row,Structure (SMILES),RP-LC retention time [s]
1,CN1C(=O)c2ccccc2C(C(=O)NCCCN2CCc3ccccc3C2)C1c1cccs1 (configuration not stated),647
2,O=C(c1ccoc1)N1CC(N(Cc2ccncc2)CC2CC2)C1,593
3,CC1(C)COc2ccc(NC(=O)NCc3cccc4ccccc34)cc2NC1=O,602
4,CC(=O)N1CCc2cc(N3CC(C(=O)Nc4cccc(F)c4)CC3=O)ccc21 (configuration not stated),710
5,COc1cccc(CCC(=O)Nc2ccc3ncnc(N4CCCC4)c3c2)c1,683
6,CCn1c(CC2C(=O)Nc3ccc(Br)cc32)nc2ccccc2c1=O (configuration not stated),825
7,CCOc1ccc(S(=O)(=O)N2CCCC(C(=O)Nc3ccccc3)C2)cc1 (configuration not stated),999
8,O=C(CCc1nc(-c2ccc(N3CCCC3)cc2)no1)N1CCC2(CC1)OCCO2,945
9,O=C(Cc1csc(NC(=O)c2ccc(=O)[nH]c2)n1)NCc1ccccc1Cl,616
10,COc1ccc(N2CC(CNC(=O)C3CCCC3)OC2=O)cc1OC (configuration not stated),649
11,CC(=O)Nc1nsc(N2CCC(C(=O)NCc3ccc(F)cc3F)CC2)n1,798
12,Cc1sc(NC(=O)CCC2CCCCC2)nc1-c1ccc2c(c1)N(C)C(=O)CO2,1290
13,CCCNC(=O)C1CCCN(c2nc3ncn(CC(=O)Nc4cc(F)ccc4C)c(=O)c3s2)C1 (configuration not stated),705
14,CCOc1ccc(-c2cc3c(=O)n(Cc4nc(-c5ccccc5C)no4)ncn3n2)cc1,1130
15,Cc1cc(NS(=O)(=O)c2c(C)noc2C)n(C2CCS(=O)(=O)C2)n1 (configuration not stated),676
16,O=C(c1cccs1)N1CCN(c2cnn3c(C4CC4)nnc3c2)CC1,625
17,Cc1cccc(-c2noc(-c3nn(-c4cccc(F)c4)ccc3=O)n2)c1,928
18,O=c1cc(-c2cc(O)c(O)c([C@@H]3O[C@H](CO)[C@@H](O)[C@H](O)[C@H]3O)c2)oc2cc(O[C@@H]3O[C@H](CO)[C@@H](O)[C@H](O)[C@H]3O)cc(O)c12,648
19,Cc1ccc(C2=NC3(CCN(C(=O)c4ccoc4)CC3)ON2)cc1,752
20,O=C(Nc1nc(C(=O)NCc2nc(-c3ccccc3)no2)co1)c1ccsc1,707
21,Cc1ccc(C2=NC3(CCN(C(=O)Cc4ccccc4C)CC3)ON2)cc1,933
22,Cc1noc2nc(CCC(=O)N3CCc4ccccc43)nc(N3CCCCCC3)c12,1060

row,Structure (SMILES),RP-LC retention time [s]
1,CCOC(=O)c1ccccc1NC(=O)CSc1ccc(-c2ccco2)nn1,524
2,CC(C)n1cnc(S(=O)(=O)N2CCC(C(=O)NCc3cccs3)CC2)c1,701
3,Cn1cc(C2=CCN(S(=O)(=O)c3ccccc3F)CC2)c2cccnc21,944
4,CCCOC(=O)c1cccc(Nc2nc(-c3cccnc3)nc3ccccc23)c1,889
5,O=c1c(NCc2ccccc2Cl)nccn1-c1ccc2c(c1)OCO2,932
6,O=C(NCCn1nc(-c2ccc(F)cc2)ccc1=O)Nc1cccs1,692
7,COc1ccc(N2CCN(c3cc(SCC(=O)Nc4ccccc4Cl)ncn3)CC2)cc1,1110
8,Cc1ccc(-c2coc(-c3ccc(NC(=O)c4ccco4)cc3)n2)c(C)c1,1170
9,O=C(CCn1cnc2cc(-c3noc(-c4cncc(Br)c4)n3)ccc21)N1CCCCC1,782
10,CCc1c(C)nc2ncnn2c1N1CCOCC1,653
11,Cc1ccn2c(NC(=O)c3ccccc3F)c(-c3ccccc3)nc2c1,653
12,O=C(O)c1cccc(Nc2c(-c3cccc(Br)c3)nc3cnccn23)c1,748
13,CC1(C(=O)NC2CCCC2)CN(S(=O)(=O)c2ccccc2)CC(=O)N1c1ccc(F)cc1 (configuration not stated),892
14,O=S(=O)(c1cccnc1)N1CCC2(CC1)NCCc1c2[nH]c2ccccc12,640
15,Cn1nccc1-c1cccc(-c2noc(C3(c4ccccc4)CC3)n2)c1,1150
16,Cc1ccc(-c2nc(-c3ccc4c(c3)nnn4CCC(=O)N3CCCC3)no2)c(C)c1,1090
17,O=C(Cn1cnc2c(-c3ccc(F)cc3)csc2c1=O)N1CCCc2ccccc21,1020
18,COc1ccc(S(=O)(=O)N2CCCN(c3ccc(=O)n(-c4ccccc4)n3)CC2)cc1,822
19,O=C(c1ccc(Br)cc1)N1CCC(n2c(-c3ccoc3)nc3cccnc32)C1 (configuration not stated),783
20,Cc1ccc(NC(=O)C2CCN(S(=O)(=O)c3ccc4c(c3)sc(=O)n4C)CC2)nc1,697
21,Cc1ccn2cc(-c3ccc(NS(=O)(=O)c4cc(C(C)C)ccc4C)cc3)nc2n1,745
22,CCCCN(CC)c1nc(-c2ccc(C)cc2)nc2ccccc12,941

row,Structure (SMILES),RP-LC retention time [s]
1,COc1ccc(Cl)cc1NC(=O)Nc1ccc2c(c1)C(=O)NCC2,748
2,O=C(O)c1cn(-c2ccc3c(c2)CCC3)nn1,768
3,CC(C)N1C(=O)c2cccnc2Sc2cc(NC(=O)Cc3ccc(F)cc3)ccc21,867
4,Cc1ccc(-c2noc(Cc3nnc(-c4cccc(Cl)c4)o3)n2)cc1C,1210
5,COCCNC(=O)CCc1cn(Cc2ccccc2C)c2ccccc12,919
6,Cc1ccc(S(=O)(=O)c2cnc(N3CCC4(CC3)OCCO4)nc2N)cc1,858
7,O=C(Nc1cccc(C(F)(F)F)c1)N1CCN(c2ccc(Nc3cccnc3)nn2)CC1,566
8,CC1CCCN(CCCNC(=O)CN2C(=O)CCc3cc(S(=O)(=O)N4CCCCC4)ccc32)C1 (configuration not stated),638
9,O=C1NCCCCCCN(C(=O)c2cnccn2)[C@H]2CCCC[C@@H]12,684
10,Cc1ccc(C)c(Sc2ccc(N3CCC(C(=O)NCC(C)c4ccccc4)CC3)nn2)c1 (configuration not stated),938
11,COC(=O)c1ccc2c(=O)n(Cc3ccc(OC)cc3)c(N3CCC(C(N)=O)CC3)nc2c1,744
12,CCCn1c(=O)c(C)nc2cc(-c3noc(Cc4ccc(OC)cc4)n3)ccc21,1040
13,CCC(=O)NCc1nc2c(n1C)CN(C(=O)c1ccccc1Br)CC2,505
14,O=C(NC(c1ccccc1)c1nnc(N2CCCCC2)o1)c1ccco1 (configuration not stated),774
15,COCCn1c(C2CCN(S(=O)(=O)c3ccc(F)c(Cl)c3)C2)nc2ccncc21 (configuration not stated),590
16,COc1nn(C)cc1C(=O)N1CCCC(C(=O)NCc2ccccc2OC(F)(F)F)C1 (configuration not stated),705
17,O=C(CN1C(=O)C2CCCCN2c2ccc(S(=O)(=O)N3CCCC3)cc21)N1CCCCC1 (configuration not stated),872
18,COc1ccc(C2OC(c3cc(OC)c(OC)c(OC)c3)=NN2C(C)=O)c(OC)c1 (configuration not stated),885
19,COc1ccc(CNC(=O)Cn2nc3c(Oc4ccccc4C)nccn3c2=O)cc1,957
20,Cc1ccsc1CN1CC(Oc2ccc(-c3noc(C4CCOCC4)n3)cc2)C1,690
21,COc1ccc(CCNC(=O)C2CCc3nc(N4CCCCC4)ncc3C2)cc1OC (configuration not stated),702
22,CCCS(=O)(=O)Nc1cccc(-c2cn3ccccc3n2)c1,608

row,Structure (SMILES),RP-LC retention time [s]
1,Cc1ccc(Cn2cccc(C(=O)Nc3nc4c(C)cccc4s3)c2=O)cc1,1240
2,NC(=O)C1CCN(C(=O)COCc2cc(-c3cccs3)on2)CC1,640
3,COc1cc(-c2noc(C3CC(=O)N(c4ccc(C)c(C)c4)C3)n2)cc(OC)c1OC (configuration not stated),990
4,CCCC1NN(C)C2C(=O)NC(c3cc(S(=O)(=O)N4CCN(C)CC4)ccc3OCC)NC12 (configuration not stated),722
5,O=c1c(=O)n(-c2cccc(Cl)c2)ccn1Cc1nc(-c2cccc(F)c2)no1,895
6,CCc1cccc(NC(=O)c2cc(C)n3nccc3n2)c1,1030
7,COC(=O)c1ccccc1NC(=O)c1c(O)c2cccnc2n(-c2ccc(F)cc2)c1=O,1180
8,COc1ccc(-c2noc(C3CCCN3C(=O)Nc3cc(OC)cc(OC)c3)n2)cc1 (configuration not stated),941
9,Cc1ccc2c(c1)cc(S(=O)(=O)c1ccccc1)c(=O)n2CC(=O)NCc1ccccc1Cl,948
10,Cc1[nH]c(C(=O)N2CCC(CC(=O)NCC3CCCO3)CC2)c(C)c1C(=O)OC(C)C (configuration not stated),682
11,Cc1nc(C(=O)N2CCSCC2)c(C)o1,620
12,Cc1ccccc1C(=O)N1CCC2(CC1)NC(=O)c1cc(F)ccc1N2C,749
13,CCCN(CC1CCOC1)S(=O)(=O)c1cc(Cl)ccc1OC (configuration not stated),939
14,CC(C)c1nc2ccc(CCC(=O)NC(C)c3ccccc3)cc2[nH]1 (configuration not stated),610
15,Cc1ccc(-n2cc(C(=O)NCc3ccco3)nn2)cc1C,854
16,O=S(=O)(c1ccccc1)N1CCCC(c2nnnn2-c2ccccc2)C1 (configuration not stated),928
17,CC(=O)Nc1ccc(OC(=O)Oc2ccc(NC(C)=O)cc2)cc1,724
18,O=C(NCc1cc(F)cc(F)c1)c1sc2ncccc2c1-n1cccc1,1030
19,N#Cc1ccc(-c2nc(-c3ccc4c(c3)ncn4CCN3CCCCC3)no2)cc1,632
20,O=C(NCc1ccccc1F)C1CCCN(c2nc3ccccc3n(Cc3ccccc3)c2=O)C1 (configuration not stated),1150
21,Cc1nc2nc(-c3ccccc3)nn2c(C)c1CC(=O)N1CCCCC1C (configuration not stated),836
